From patent US20100190797A1, “C[…] OF ZOPICLONE, PROCESSES FOR THEIR PREPARATION AND THEIR PHARMACEUTICAL COMPOSITIONS” (CIPLA LTD., priority 2007, published 2010)

How the values were obtained:
[1] = background statement; Form A gets converted into dihydrate Form B; cited from earlier work
[2] = Stability of crystalline polymorphic forms of Zopiclone (conversion to hydrate form); settings: conversion to more stable hydrate form of Zopiclone
[3] = Hygroscopicity on exposure to air; assay type: physicochemical; settings: does not capture moisture even on exposure to air

SMILES | stability of the known crystalline form [1] | thermodynamic stability of the crystalline form [2] | hygroscopicity [3]
CN1CCN(C(=O)OC2c3nccnc3C(=O)N2c2ccc(Cl)cn2)CC1 (centres unmarked) [Form B, Zopiclone] | thermodynamically stable |  | 
CN1CCN(C(=O)OC2c3nccnc3C(=O)N2c2ccc(Cl)cn2)CC1 (centres unmarked) [Form C, Zopiclone] |  | thermodynamically unstable | 
CN1CCN(C(=O)OC2c3nccnc3C(=O)N2c2ccc(Cl)cn2)CC1 (centres unmarked) [Zopiclone Form A, Zopiclone] | unstable |  | 
CN1CCN(C(=O)OC2c3nccnc3C(=O)N2c2ccc(Cl)cn2)CC1 (centres unmarked) [Zopiclone Form D, Zopiclone] |  | stable | non-hygroscopic
